Test results taken from patent publication US12409206B2, “Use of cyclosporine analogues for treating fibrosis” (Hepion Pharmaceuticals, Inc., priority 2020, dated 2025).

Key:
Assay type in all cases: cell-based
[1] = system: Human cardiac fibroblasts; assay: Cell viability analysis, cardiac fibroblast culture; settings: end of treatment (6 days)
Description: Human cardiac fibroblasts (Lonza Bioscience, Cat. #CC-2903) were cultured in 96-well plates. Treatments were applied in triplicate wells (applied 100 ul treatments per well) for 6 days. Cells were near confluence at the start of treatments. […] Spent culture medium collected at the end of treatments was assayed for procollagen and fibronectin by enzyme-linked immunosorbent assays (ELISA) (Procollagen ELISA antibody pair (ab216064) and fibronectin ELISA antibody pair (ab222262) from Abcam). Procollagen and fibronectin were not detected in medium not applied to cells. Procollagen and fibronectin levels in the medium are represented by means±SD (bars) from 3 replicate wells (open circles).

[2] = system: Human adult dermal fibroblasts; assay: Cell viability analysis, dermal fibroblast culture; settings: end of 4 days of treatment (so in the source)
[3] = system: human precision cut liver slices (PCLS); assay: PCLS Sirius red tissue fibrosis, Nonstimulation Protocol; settings: 6 days of culture in the absence of exogenous TGFβ+PDGF-BB; most CRV431-treated slices
Description: PCLS were obtained from 5 human donors who underwent resection of liver cancer. Replicate slices were collected from healthy margins of the resections and cultured for 4 or 6 days depending on the experimental protocol. In the Nonstimulation Protocol slices were cultured for 6 days and treated for the entire period with DMSO vehicle or 5 μM CRV431. In the Stimulation Protocol slices were rested for 1 day and then administered the cytokines, TGFβ and PDGF-BB, for 3 days to stimulate inflammation and fibrosis. […]
Four types of evaluations were conducted on the PCLS: (a) secretion of inflammation and fibrosis biomarkers into the culture medium, (b) histological staining and quantitation of Sirius red as a measure of tissue fibrosis, (c) gene expression of inflammation and fibrosis biomarkers by RT-PCR, and (d) RNA sequencing (RNA-Seq) of the complete transcriptome. […] ELISAs were used to quantify secretion of monocyte chemoattractant protein (MCP-1), interleukin-6 (IL-6), tissue inhibitor of metalloproteinase-1 (TIMP1), hyaluronic acid, fibronectin, and collagen 1α1. For each donor the mean level of biomarker secretion in each treatment group was expressed as a percentage change relative to DMSO vehicle, the percentages averaged for all donors, and finally the mean daily percentage change calculated from all days of evaluation. […]

[4] = system: Human Lung Fibroblasts from a Patient with Idiopathic Pulmonary Fibrosis (IPF); assay: Cell viability analysis, IPF lung fibroblast culture; settings: end of treatment (6 days)
Description: Human Lung Fibroblasts from a Patient with Idiopathic Pulmonary Fibrosis (IPF) (Lonza Bioscience, Cat. #CC-7231) were cultured in 96-well plates. Treatments were applied in triplicate wells (applied 100 ul treatments per well) for 6 days. Cells were near confluence at the start of treatments. […] Spent culture medium collected at the end of the treatments was assayed for procollagen and fibronectin by enzyme-linked immunosorbent assays (ELISA) (Procollagen ELISA antibody pair (ab216064) and fibronectin ELISA antibody pair (ab222262) from Abcam). Procollagen and fibronectin were not detected in medium not applied to cells. Procollagen and fibronectin levels in the medium are represented by means±SD (bars) from 3 replicate wells (open circles).

In the case of CC[C@@H]1NC(=O)[C@H]([C@H](O)[C@H](C)CCCCCCNC(C)=O)N(C)C(=O)[C@H](C(C)C)N(C)C(=O)[C@H](CC(C)C)N(C)C(=O)[C@H](CC(C)C)N(C)C(=O)[C@@H](C)NC(=O)[C@H](C)NC(=O)[C@H](CC(C)C)N(C)C(=O)[C@H](C(C)C)NC(=O)[C@H](CC(C)C)N(C)C(=O)[C@@H](C)N(C)C1=O [CRV431], the cell viability [1] is reported as “none of the CRV431 treatments affected cell viability”, the cell viability [2] is reported as “none of the CRV431 treatments affected cell viability” and the “tissue fibrosis vs vehicle-treated slices” value [3] is reported as “less fibrosis than vehicle-treated slices”. The cell viability [4] was “none of the CRV431 treatments affected cell viability”.
